Assay [1] in a line: Inhibition of gamma-secretase mediated cleavage of Notch 1 in human MIAPaCa2 cells assessed as nuclear accumulation of Notch 1 intracellular domain (N1ICD) after 24 hrs by ELISA. The assay is classed as cell-based. To be noted: MIA PaCa-2, 24 h. A general note: ELISA stands for enzyme-linked immunosorbent assay.
A short description of assay [2]: Inhibition of gamma-secretase mediated cleavage of Notch 1 in human MOLT-3 cells assessed as nuclear accumulation of Notch 1 intracellular domain (N1ICD) after 24 hrs by ELISA. The assay is classed as cell-based. To be noted: MOLT-3, 24 h.
Assay [3] in a line: Inhibition of gamma-secretase mediated cleavage of Notch 1 in human A2780 cells assessed as nuclear accumulation of Notch 1 intracellular domain (N1ICD) after 24 hrs by ELISA. The assay is classed as cell-based. Conditions: A2780, 24 h.
Assay [4] in a line: Inhibition of gamma-secretase mediated cleavage of Notch 1 in human MDA-MB-231 cells assessed as nuclear accumulation of Notch 1 intracellular domain (N1ICD) after 24 hrs by ELISA. The format is cell-based. Conditions: MDA-MB-231, 24 h.
Assay [5] is described as follows: Inhibition of gamma-secretase mediated cleavage of Notch 1 in human CCRF-CEM cells assessed as nuclear accumulation of Notch 1 intracellular domain (N1ICD) after 24 hrs by ELISA. The format is cell-based.
Assay [6] can be described thus: Inhibition of gamma-secretase mediated cleavage of Notch 1 in human Jurkat cells assessed as nuclear accumulation of Notch 1 intracellular domain (N1ICD) after 24 hrs by ELISA. The format is cell-based.
The nature of assay [7]: Inhibition of gamma-secretase mediated cleavage of Notch 1 in human U-87-MG cells assessed as nuclear accumulation of Notch 1 intracellular domain (N1ICD) after 24 hrs by ELISA. The format is cell-based, U-87MG ATCC.
Assay [8] is described as follows: Inhibition of gamma-secretase mediated cleavage of Notch 1 in human SW480 cells assessed as nuclear accumulation of Notch 1 intracellular domain (N1ICD) after 24 hrs by ELISA. The assay is classed as cell-based. To be noted: SW480, 24 h.
The nature of assay [9]: Inhibition of gamma-secretase mediated cleavage of Notch 1 in human K562 cells assessed as nuclear accumulation of Notch 1 intracellular domain (N1ICD) after 24 hrs by ELISA. The format is cell-based. To be noted: K562, 24 h.
Assay [10] is described as follows: Inhibition of gamma-secretase mediated cleavage of Notch 1 in human A375 cells assessed as nuclear accumulation of Notch 1 intracellular domain (N1ICD) after 24 hrs by ELISA. The format is cell-based. To be noted: A-375, 24 h.
Assay [11] in a line: Inhibition of gamma-secretase mediated cleavage of Notch 1 in human HEL 92.1.7 cells assessed as nuclear accumulation of Notch 1 intracellular domain (N1ICD) after 24 hrs by ELISA. The assay is classed as cell-based. Conditions: HEL 92.1.7, 24 h.
Assay [12] is described as follows: Inhibition of gamma-secretase mediated cleavage of Notch 1 in human HCT 116 cells assessed as nuclear accumulation of Notch 1 intracellular domain (N1ICD) after 24 hrs by ELISA. The assay is classed as cell-based. To be noted: HCT-116, 24 h.
A short description of assay [13]: Inhibition of gamma-secretase mediated cleavage of Notch 1 in human BxPC3 cells assessed as nuclear accumulation of Notch 1 intracellular domain (N1ICD) after 24 hrs by ELISA. The assay is classed as cell-based. Conditions: BXPC-3, 24 h.
A short description of assay [14]: Inhibition of gamma-secretase mediated cleavage of Notch 1 in human DLD1 cells assessed as nuclear accumulation of Notch 1 intracellular domain (N1ICD) after 24 hrs by ELISA. The format is cell-based. To be noted: DLD-1, 24 h.
Assay [15] in a line: Inhibition of gamma-secretase mediated cleavage of Notch 1 in human SUP-T1 cells assessed as nuclear accumulation of Notch 1 intracellular domain (N1ICD) after 24 hrs by ELISA. Conditions: SUP-T1, 24 h. The format is cell-based.
A short description of assay [16]: Inhibition of gamma-secretase mediated cleavage of Notch 1 in human MOLT-4 cells assessed as nuclear accumulation of Notch 1 intracellular domain (N1ICD) after 24 hrs by ELISA. The assay is classed as cell-based. To be noted: MOLT-4, 24 h.
A short description of assay [17]: Inhibition of gamma-secretase mediated cleavage of transfected mouse Notch 1 (1703-2183) harboring N-terminal 23 aminoacid signal peptide sequence in human HEK293deltaE12 cells assessed as nuclear accumulation of Notch 1 intracellular domain (N1ICD) after 24 hrs by fluorescence cellular imaging analysis. The assay is classed as cell-based.

As for `C[C@H](NC(=O)CCC(F)(F)F)C(=O)N[C@@H]1C(=O)N(CCO)c2ncccc2-c2ccccc21` [CRENIGACESTAT], the IC50 (usually the midpoint of a concentration-inhibition curve) in assay [1] came out at 0.71 nM; in [2] it was 0.61 nM; in assay [3], 1.03 nM; in [4], 0.5 nM; in assay [5], 0.76 nM; in assay [6], 5.95 nM. In addition, the IC50 in [7] was 0.28 nM; in assay [8] it was 0.1 nM; in assay [9], 0.74 nM; in [10] it was 0.48 nM; in assay [11], 0.23 nM; in assay [12], 0.72 nM. For the same compound, the IC50 was 0.39 nM in assay [13]; 0.98 nM in assay [14]; 1.24 nM in [15]; 0.74 nM in [16]; 0.41 nM in assay [17].

The values are drawn from ChEMBL document CHEMBL2331174, “Inhibition of notch pathway signaling: a one compound mission to treat cancer” (ACS Med Chem Lett, 2013).
